Results from ChEMBL document CHEMBL3396980, “Total synthesis of Herbarin A and B, determination of their antioxidant properties and toxicity in zebrafish embryo model” (Bioorg Med Chem Lett, 2015).

Key:
[1] = Antioxidant activity assessed as ferric ion reducing activity using fe3+-TPTZ assessed as fe2+-TPTZ formation at 0.1 to 1 mM by spectrophotometry based FRAP assay; assay type: physicochemical; conditions: 1000 µM
Danio rerio [2] = organism: Danio rerio; assay: Toxicity in wild type zebrafish embryo in E3 medium treated for 2 days observed on 24 hrs of post fertilization by microscopy; assay type: organism-based; conditions: in vivo, 48 h
Danio rerio [3] = organism: Danio rerio; assay: Toxicity in wild type zebrafish embryo in E3 medium assessed as teratogenicity treated at 9 to 190 nM for 2 days observed on 24 hrs of post fertilization by microscopy; assay type: organism-based; conditions: in vivo, 48 h, 0.19 µM

Structure (SMILES) | Activity [1] | Activity (Danio rerio [2]) | Activity (Danio rerio [3])
COc1cc(=O)oc(/C=C/C=C/C(=O)O)c1C | Active | Non-toxic | –
COc1cc(=O)oc(/C=C/C(=O)O)c1C | Active | – | 100%
